Experimental data as given in ChEMBL document CHEMBL3217655, “The development of quinoloneesters as novel antimalarial agents targeting the Plasmodium falciparum bc1protein complex” (Medchemcomm, 2012).

system: not listed separately; assay: Inhibition of Plasmodium falciparum 3D7 cytochrome bc1 complex assessed as cytochrome c reduction by spectrophotometric analysis in presence of decylubiquinol; conditions: not given

| Compound | EC50 [µM] |
| --- | --- |
| CCOC(=O)c1c[nH]c2cc(Cc3ccc(OC(F)(F)F)cc3)ccc2c1=O | 0.0013 |
| O=C1C(O)=C([C@H]2CC[C@H](c3ccc(Cl)cc3)CC2)C(=O)c2ccccc21 [ATOVAQUONE] | 0.003 |

system: Plasmodium falciparum; assay: Antimalarial activity against wild type Plasmodium falciparum 3D7 assessed as growth inhibition; format: functional, organism-based; conditions: not given

| Compound | IC50 |
| --- | --- |
| CCOC(=O)c1c[nH]c2ccc(OCc3ccccc3)cc2c1=O | ND(Insoluble) |
| CCOC(=O)c1c[nH]c2cc(OCc3ccccc3)ccc2c1=O | ND(Insoluble) |

same assay, conditions: Plasmodium falciparum, 3D7; read-out: IC50

| Compound | IC50 [µM] |
| --- | --- |
| CC(C)OC(=O)c1c[nH]c2cc(Oc3ccccc3)ccc2c1=O | 0.00845 |
| CCOC(=O)c1c[nH]c2ccc(Cc3ccccc3)cc2c1=O | 0.0404 |
| CCOC(=O)c1c[nH]c2cc(Cc3ccc(OC(F)(F)F)cc3)ccc2c1=O | 0.00046 |
| CCOC(=O)c1c[nH]c2cc(Oc3ccccc3)ccc2c1=O | 0.0193 |
| N#Cc1c[nH]c2ccc(Oc3ccccc3)cc2c1=O | > 10 |
| CCOC(=O)c1c[nH]c2ccc(Oc3ccccc3)cc2c1=O | 0.164 |
| CCOC(=O)c1c[nH]c2cc(Cc3ccccc3)ccc2c1=O | 0.00457 |
| CC(C)OC(=O)c1c[nH]c2ccc(Oc3ccccc3)cc2c1=O | 0.184 |
| CCOC(=O)c1c[nH]c2ccc(Cc3ccc(OC(F)(F)F)cc3)cc2c1=O | 0.142 |
| O=C(OC1CCCCC1)c1c[nH]c2cc(Oc3ccccc3)ccc2c1=O | 0.0296 |
| O=c1cc[nH]c2cc(Oc3ccccc3)ccc12 | 6.73 |
| O=c1cc[nH]c2ccc(Oc3ccccc3)cc12 | 4.7 |
| O=C(OC1CCCCC1)c1c[nH]c2ccc(Oc3ccccc3)cc2c1=O | 1.82 |
| CCOC(=O)c1c[nH]c2cc(Oc3ccc(OC(F)(F)F)cc3)ccc2c1=O | 0.0053 |
| N#Cc1c[nH]c2cc(Oc3ccccc3)ccc2c1=O | 8.1 |
| CCOC(=O)c1c[nH]c2ccc(OCc3ccc(OC(F)(F)F)cc3)cc2c1=O | 0.675 |
| CCOC(=O)c1c[nH]c2cc(OCc3ccc(OC(F)(F)F)cc3)ccc2c1=O | 0.005 |
| CCOC(=O)c1c[nH]c2ccc(Oc3ccc(OC(F)(F)F)cc3)cc2c1=O | 0.23 |
